According to patent EP0923292B1, “IMPROVED METHOD FOR SYSTEMIC ADMINISTRATION OF 2,4-DIENOIC ACID-TYPE INSECTICIDES TO TERRESTRIAL MAMMALS” (priority 1996, dated 1998):

What was measured:
[1] = Concentration of (S)-methoprene on dog hair following oral administration (HPLC); format: in vivo, dogs; conditions: oral 50 mg/kg one time on Day 0; for concentration at 17 day / concentration at 21 day / concentration at 1 day / concentration at 3 day / concentration at 5 day / concentration at 7 day / concentration at 10 day / concentration at 14 day / concentration at 28 day: dog, hair, po, 50 mg/kg; for concentration at 1 day: day 1
Excerpt: Twelve random-bred adult dogs of various sex and medium hair coat were selected based on hair coat, health, and individual habits. The twelve dogs were grouped into two groups of six dogs each. Dog weights ranged from 22.5 kg to 35.0 kg, and the various weights and each sex were represented in each group. The dogs received a measured amount of Science Diet maintenance dog food daily and water was available. The two groups of dogs were housed separately. The dogs of Group 1 were not given any treatments, whereas those of Group 2 were each given 50 mg/kg of technical (S)-methoprene one time only at the start of the study (Day 0).
Blood samples were taken periodically by drawing the samples into 10 cc disposable syringes and transferring them to labeled 5 mL heparinized EDTA vacutainers treated with […] of paraoxon solution at a concentration of 1 x 10^-2 M. The blood samples were frozen until ready for analysis. Hair samples were clipped from the dogs on the same days that blood samples were taken, then placed in labeled freezer jars with aluminum foil seals, and frozen.
To analyze the dog hair, a known weight (4-8 g) of each dog hair sample was extracted in hexane, the extract evaporated and the residue reconstituted in 2 mL of hexane. One mL of the extract was cleaned by solid-phase extraction using a 3 cc/500 mg silica cartridge. The (S)-methoprene was then eluted from the cartridge with 5% ethyl acetate/hexane. The residue was reconstituted in 1 mL acetonitrile and analyzed by reversed-phase high-pressure liquid chromatography (HPLC) on a C18 column (250 x 4.6 mm, 10-micron diameter) using diode array detection at a wavelength of 264 nm, with a mobile phase of 90:10 methanol:water at 1.5 mUmin and an injection volume of […]. The (S)-methoprene peak eluted at about 5.1 minutes. The concentration of (S)-methoprene was calculated based on a calibration curve generated by concurrently running a series of standards. The limit of quantitation was about 20 ppb.

[2] = (S)-Methoprene concentration in fat of rat upon in vivo administration (radioassay/TLC); design: species or system Sprague-Dawley male rats
Experimental: Sprague-Dawley CD® VAF/PLUS® male rats were purchased from Charles River Breeding Laboratories, Inc., Portage, Michigan, USA. The body weights of the rats averaged 200 g at the time of dose administration. The rats were quarantined for five days before use, except for jugular vein-cannulated rats, to which doses were administered 1 to 3 days after receipt. The rats were divided into three groups for dosage with ^14C-(S)-methoprene: • Group A received a single dose of 10 mg/kg of the ovicide through intravenous injection via the jugular vein. Three rats each were sacrificed at 0.5 hour, 1 hour, 2 hours, 3 hours, 4 hours, 5 hours, 6 hours, and 7 hours after dosing. • Group B received a single dose 10 mg/kg of the ovicide through oral administration by gavage dosing. Three rats each were sacrificed at 1 hour, 2 hours, 3 hours, 4 hours, 5 hours, 6 hours, 7 hours, and 8 hours after dosing. • Group C received a single dose 100 mg/kg of the ovicide through oral administration by gavage dosing. Three rats each were sacrificed at 1 hour, 2 hours, 3 hours, 4 hours, 5 hours, 6 hours, 7 hours, and 8 hours after dosing. After dosing the rats were house individually in cages. Daily room temperature was maintained between 69°C and […] and the relative humidity was between 40% and 70%. All rats had free access to food and fresh tap water.
For analyses of the ovicide in fat, visceral fat was collected from the sacrificed rats. The fat sample from each rat was thoroughly mixed 1:1 with cellulose powder, and homogenized with a few drops of water. A portion (0.5 to 1 g) of each fat sample was extracted with 10 mL of a mixture of hexane/diethyl ether (1:1), which was treated vigorously on a sonicator for four minutes, then vortex mixed for two minutes and centrifuged. This procedure was repeated twice. The extracts were then combined, radioassayed, rotary evaporated, and concentrated under nitrogen for TLC analysis. A small amount of methanol was added to precipitate the fat to improve the TLC separation. Radioassays and TLC analyses were performed in the same manner as for the blood samples.

For `COC(C)(C)CCC[C@H](C)C/C=C/C(C)=C/C(=O)OC(C)C` [(S)-Methoprene, 1-isopropyl (E,E)-11-methoxy-3,7,11-trimethyl dodecadi-2,4-enoate], the “Concentration of (S)-Methoprene on Dog Hair” value (shortened to “Concentration … on Dog Hair”) ([1]; Dog #60, day 3) was 33,900 ppb, the “Concentration … on Dog Hair” value ([1]; Dog #60, day 5) was 12,500 ppb and the “Concentration … on Dog Hair” value ([1]; Dog #60, day 7) was 2,400 ppb. The “Concentration … on Dog Hair” value ([1]; Dog #60, day 10) was 12,300 ppb, the “Concentration … on Dog Hair” value ([1]; Dog #60, day 14) was 5,300 ppb and the “Concentration … on Dog Hair” value ([1]; Dog #60, day 17) was 3,600 ppb. The “Concentration … on Dog Hair” value ([1]; Dog #60, day 21) was 12,100 ppb, the “Concentration … on Dog Hair” value ([1]; Dog #60, day 28) was 5,200 ppb and the concentration at 17 day ([1]; Dog #98, day 17) was 345 ng/g. It also gave a concentration at 17 day ([1]; Dog #528, day 17) of 137 ng/g, a concentration at 21 day ([1]; Dog #528, day 21) of 31.2 ng/g and a concentration at 17 day ([1]; Dog #529, day 17) of 39.7 ng/g. It also gave a concentration at 21 day ([1]; Dog #529, day 21) of 93.5 ng/g, a concentration at 17 day ([1]; Dog #532, day 17) of 331 ng/g and a concentration at 17 day ([1]; Dog #535, day 17) of 1090 ng/g. For the same compound, the concentration at 1 day ([1]; random-bred, Dog #60) was 6000 ng/g, the concentration at 1 day ([1]; random-bred, Dog #98) was 47.4 ng/g and the concentration at 3 day ([1]; random-bred, Dog #98, day 3) was 125 ng/g. It also gave a concentration at 5 day ([1]; random-bred, Dog #98, day 5) of 161 ng/g, a concentration at 7 day ([1]; random-bred, Dog #98, day 7) of 126 ng/g and a concentration at 10 day ([1]; random-bred, Dog #98, day 10) of 167 ng/g. The concentration at 14 day ([1]; random-bred, Dog #98, day 14) was 200 ng/g, the concentration at 21 day ([1]; random-bred, Dog #98, day 21) was 231 ng/g and the concentration at 28 day ([1]; random-bred, Dog #98, day 28) was 287 ng/g. The concentration at 1 day ([1]; random-bred, Dog #528) was 76.6 ng/g, the concentration at 3 day ([1]; random-bred, Dog #528, day 3) was 199 ng/g and the concentration at 5 day ([1]; random-bred, Dog #528, day 5) was 114 ng/g. The concentration at 7 day ([1]; random-bred, Dog #528, day 7) was 150 ng/g, the concentration at 10 day ([1]; random-bred, Dog #528, day 10) was 126 ng/g and the concentration at 14 day ([1]; random-bred, Dog #528, day 14) was 103 ng/g. For the same compound, the concentration at 28 day ([1]; random-bred, Dog #528, day 28) was 47.2 ng/g, the concentration at 1 day ([1]; random-bred, Dog #529) was 86.6 ng/g and the concentration at 3 day ([1]; random-bred, Dog #529, day 3) was 82.2 ng/g. For the same compound, the concentration at 5 day ([1]; random-bred, Dog #529, day 5) was 58.3 ng/g, the concentration at 7 day ([1]; random-bred, Dog #529, day 7) was 34.5 ng/g and the concentration at 10 day ([1]; random-bred, Dog #529, day 10) was 60.5 ng/g. For the same compound, the concentration at 14 day ([1]; random-bred, Dog #529, day 14) was 85.5 ng/g, the concentration at 28 day ([1]; random-bred, Dog #529, day 28) was 106 ng/g and the concentration at 3 day ([1]; random-bred, Dog #532, day 3) was 62.4 ng/g. It also gave a concentration at 5 day ([1]; random-bred, Dog #532, day 5) of 98.6 ng/g, a concentration at 7 day ([1]; random-bred, Dog #532, day 7) of 117 ng/g and a concentration at 10 day ([1]; random-bred, Dog #532, day 10) of 255 ng/g. For the same compound, the concentration at 14 day ([1]; random-bred, Dog #532, day 14) was 350 ng/g, the concentration at 21 day ([1]; random-bred, Dog #532, day 21) was 342 ng/g and the concentration at 28 day ([1]; random-bred, Dog #532, day 28) was 230 ng/g. The concentration at 1 day ([1]; random-bred, Dog #535) was 49.3 ng/g, the concentration at 3 day ([1]; random-bred, Dog #535, day 3) was 424 ng/g and the concentration at 5 day ([1]; random-bred, Dog #535, day 5) was 276 ng/g. For the same compound, the concentration at 7 day ([1]; random-bred, Dog #535, day 7) was 294 ng/g, the concentration at 10 day ([1]; random-bred, Dog #535, day 10) was 681 ng/g and the concentration at 14 day ([1]; random-bred, Dog #535, day 14) was 800 ng/g. The concentration at 21 day ([1]; random-bred, Dog #535, day 21) was 675 ng/g, the concentration at 28 day ([1]; random-bred, Dog #535, day 28) was 461 ng/g and the “(S)-Methoprene Concentration in Fat” value ([2]; Group A 10 mg/kg I.V., 0.5 hours, average of three animals) was 4.193 ± 1.566 ppm. The “(S)-Methoprene Concentration in Fat” value ([2]; Group A 10 mg/kg I.V., 1 hour, average of three animals) was 6.936 ± 3.259 ppm, the “(S)-Methoprene Concentration in Fat” value ([2]; Group A 10 mg/kg I.V., 2 hours, average of three animals) was 5.929 ± 1.197 ppm and the “(S)-Methoprene Concentration in Fat” value ([2]; Group A 10 mg/kg I.V., 3 hours, average of three animals) was 5.233 ± 0.457 ppm. The “(S)-Methoprene Concentration in Fat” value ([2]; Group A 10 mg/kg I.V., 4 hours, average of three animals) was 8.179 ± 3.532 ppm, the “(S)-Methoprene Concentration in Fat” value ([2]; Group A 10 mg/kg I.V., 5 hours, average of three animals) was 7.596 ± 3.990 ppm and the “(S)-Methoprene Concentration in Fat” value ([2]; Group A 10 mg/kg I.V., 6 hours, average of three animals) was 6.734 ± 2.209 ppm. The “(S)-Methoprene Concentration in Fat” value ([2]; Group A 10 mg/kg I.V., 7 hours, average of three animals) was 8.077 ± 1.082 ppm, the “(S)-Methoprene Concentration in Fat” value ([2]; Group B 10 mg/kg oral, 1 hour, average of three animals) was 0.272 ± 0.103 ppm and the “(S)-Methoprene Concentration in Fat” value ([2]; Group B 10 mg/kg oral, 2 hours, average of three animals) was 1.138 ± 0.388 ppm. For the same compound, the “(S)-Methoprene Concentration in Fat” value ([2]; Group B 10 mg/kg oral, 3 hours, average of three animals) was 1.715 ± 0.680 ppm, the “(S)-Methoprene Concentration in Fat” value ([2]; Group B 10 mg/kg oral, 4 hours, average of three animals) was 2.327 ± 1.090 ppm and the “(S)-Methoprene Concentration in Fat” value ([2]; Group B 10 mg/kg oral, 5 hours, average of three animals) was 2.980 ± 0.657 ppm. The “(S)-Methoprene Concentration in Fat” value ([2]; Group B 10 mg/kg oral, 6 hours, average of three animals) was 3.369 ± 0.814 ppm, the “(S)-Methoprene Concentration in Fat” value ([2]; Group B 10 mg/kg oral, 7 hours, average of three animals) was 2.921 ± 1.345 ppm and the “(S)-Methoprene Concentration in Fat” value ([2]; Group B 10 mg/kg oral, 8 hours, average of three animals) was 2.408 ± 0.702 ppm. For the same compound, the “(S)-Methoprene Concentration in Fat” value ([2]; Group C 100 mg/kg oral, 1 hour, average of two animals) was 1.060 ± 0.270 ppm, the “(S)-Methoprene Concentration in Fat” value ([2]; Group C 100 mg/kg oral, 2 hours, average of three animals) was 14.726 ± 3.371 ppm and the “(S)-Methoprene Concentration in Fat” value ([2]; Group C 100 mg/kg oral, 3 hours, average of three animals) was 22.868 ± 3.322 ppm. For the same compound, the “(S)-Methoprene Concentration in Fat” value ([2]; Group C 100 mg/kg oral, 4 hours, average of three animals) was 45.316 ± 16.910 ppm, the “(S)-Methoprene Concentration in Fat” value ([2]; Group C 100 mg/kg oral, 5 hours, average of three animals) was 38.420 ± 2.765 ppm and the “(S)-Methoprene Concentration in Fat” value ([2]; Group C 100 mg/kg oral, 6 hours, average of three animals) was 41.898 ± 11.568 ppm. The “(S)-Methoprene Concentration in Fat” value ([2]; Group C 100 mg/kg oral, 7 hours, average of three animals) was 39.393 ± 17.952 ppm and the “(S)-Methoprene Concentration in Fat” value ([2]; Group C 100 mg/kg oral, 8 hours, average of three animals) was 47.162 ± 20.116 ppm.
